In patent US20230223113A1, “Methods and Systems for Rapid Antimicrobial Susceptibility Tests” (The Regents of the University of California, priority 2020, published 2023):
Structures can show the parent of a compound that is named as a salt.

Experiments:
[1] = system: Pseudomonas aeruginosa (strain PA14 wild type); experiment: Dose-response growth curves (OD600 after 24 h) to identify the minimum inhibitory concentration; type: cell-based; settings: for MIC: Pseudomonas aeruginosa, P. aeruginosa PA14, the stated concentration is 'just below' the MIC
Experimental: (§1) Optical density at 600 nm (OD600) to identify the minimum inhibitory concentration (MIC) of A) carbenicillin, B) rifampicin, and C) gentamicin for Pseudomonas aeruginosa, and D) gentamicin for Escherichia coli in accordance with an embodiment is illustrated in FIGS. 5A-5D. The P. aeruginosa strain, PA14 used in some embodiments has differing susceptibility to carbenicillin [+C] and rifampicin [+R]. Several embodiments refer to the antibiotic treatments that are performed with 50 μg/mL and 400 μg/mL of carbenicillin and rifampicin, respectively as the AST dataset. These concentrations are just below the respective minimum inhibitory concentrations (MICs) for these antibiotics in P. aeruginosa, as shown in FIGS. 5A and 5B. OD600 of a P. aeruginosa cell culture at indicated growth times after adjustment to OD at 0.5 at 0 h, A) without antibiotic treatment, B) with 50 μg/mL carbenicillin introduced at 0 h, and C) with 400 μg/mL rifampicin introduced at 0 h in accordance with an embodiment of the invention is illustrated in FIGS. 6A-6C.
(§2) Pseudomonas aeruginosa (strain PA14 wild type) and Escherichia coli (strain MC4100, K-12, F-araD139Δ(argF-lac)U169 rspL150 relA1 fIbB5301 fruA25 deoC1 ptsF25) cultures were obtained by first streaking from a frozen culture stock onto LB Lennox agar (IBI Scientific) plates and incubated at 37° C. for 24 h. Individual colonies from these plates were used to inoculate 100 mL of LB in triplicate, and subsequently grown for 18 h at 37° C. and shaking at 230 rpm. The 18 h cultures were centrifuged at 5000 rpm for 5 minutes, then resuspended in fresh LB to reach an optical density at 600 nm (OD600) of 0.50 as measured by a BioChrom Colourwave CO7500 Colorimeter.
Dose-Response Curves: Carbenicillin disodium salt, gentamicin sulfate, and rifampicin stock solutions were prepared to a final concentration of 10 mg/mL in water for the former two and 20% (v/v) DMSO/H2O for the latter. These stock solutions were added into 180 μL of E. coli or P. aeruginosa resuspension in a 96-well plate such that 9 separate 10-fold dilutions of each antibiotic starting at 1000 μg/mL were achieved. Vehicle controls using pure water for carbenicillin and gentamicin and 20% (v/v) DMSO/H2O for rifampicin were also created in the same 96-well plate. These plates were then incubated at 37° C. for 24 h with 230 rpm shaking, after which OD600 measurements were taken with a SpectraMax M2 Plate Reader.

[2] = system: P. aeruginosa cell culture; experiment: OD600 of cell culture over time of antibiotic exposure after adjustment to OD 0.5; type: cell-based, Pseudomonas aeruginosa; settings: 50 μg/mL carbenicillin, about 2 hour exposure
Experimental: as §1, with “OD600 of a P. aeruginosa cell culture at indicated growth times after adjustment to OD at 0.5 at 0 h, A) without antibiotic treatment, B) with 50 μg/mL carbenicillin introduced at 0 h, and C) with 400 μg/mL rifampicin introduced at 0 h in accordance with an embodiment of the invention is illustrated in FIGS. 6A-6C.” left out
as §2, with “Individual colonies from these plates were used to inoculate 100 mL of LB in triplicate, and subsequently grown for 18 h at 37° C. and shaking at 230 rpm.” left out, “Colorimeter. […]” for “Colorimeter.”

P. aeruginosa lysate = experiment: SERS spectra of cell lysate after antibiotic exposure, VAE latent space analysis; type: cell-based, Pseudomonas aeruginosa
Experimental: The VAE space from analysis of the AST dataset in accordance with many embodiments provide clustering of the different treatment classes. VAE space of AST spectra from untreated [−−] P. aeruginosa lysate (0.5 h/2 h), 50 μg/mL carbenicillin treated [+C] P. aeruginosa lysate (0.5 h/2 h), 400 μg/mL rifampicin treated [+R] P. aeruginosa lysate (0.5 h/2 h) in accordance with an embodiment of the invention is illustrated in FIG. 7A. […] Some embodiments provide that larger relative VAE 1 values can be observed for 30 minute treatment times for all treatment classes as compared to 2 hour exposure. This is consistent with OD600 measurements indicating cell recovery after 2 hour in FIGS. 6A-6C.
Many embodiments provide VAE performance on differentiating spectra from multiple bacterial species, a different antibiotic, time points, and dosages. SERS spectra from cellular lysate with varying dose and temporal response of P. aeruginosa and E. coli when exposed to gentamicin are analyzed similarly as the AST dataset in several embodiments. When analyzing the SERS spectra from E. coli and P. aeruginosa with the VAE method, differentiation of P. aeruginosa lysate data at concentrations at about 0.1 μg/mL, an order of magnitude below the MIC, can be observed in accordance with some embodiments. […]

E. coli lysate = experiment: as above; type: cell-based, Escherichia coli
Experimental: Many embodiments provide VAE performance on differentiating spectra from multiple bacterial species, a different antibiotic, time points, and dosages. SERS spectra from cellular lysate with varying dose and temporal response of P. aeruginosa and E. coli when exposed to gentamicin are analyzed similarly as the AST dataset in several embodiments. When analyzing the SERS spectra from E. coli and P. aeruginosa with the VAE method, differentiation of P. aeruginosa lysate data at concentrations at about 0.1 μg/mL, an order of magnitude below the MIC, can be observed in accordance with some embodiments. FIG. 9A illustrates VAE latent space analysis of SERS spectra of dose response of P. aeruginosa with analysis of 0, 0.1, 0.5, 1, and 10 μg/mL gentamicin dosed lysate respectively in accordance with an embodiment. In several embodiments, lysate from P. aeruginosa exposed to 10 μg/mL gentamicin (10×MIC) can be analyzed with VAE method and differentiated from control data in the VAE space at about 20 minute after initial exposure. The short temporal response time in accordance with some embodiments is much earlier than reported 2 hour response time for SERS AST. FIG. 9B illustrates VAE latent spaces of temporal response of P. aeruginosa with lysate processed after 0, 5, 10, 20, and 40 minutes of 10 μg/mL gentamicin dosage respectively in accordance with an embodiment. […]

Molecule | MIC [1] [µg/mL] | growth inhibition over the time of exposure (OD600) [2] | dose as a multiple of the MIC ([1]; 10 μg/mL gentamicin, P. aeruginosa) [×MIC] | resistance of P. aeruginosa (from growth curves, FIGS. 5A-5D) ([1]; P. aeruginosa) | time after initial exposure at which lysate is differentiated from control in VAE space (P. aeruginosa lysate; 10 μg/mL gentamicin) | antibiotic concentration at which lysate data are differentiated from control in VAE space (P. aeruginosa lysate; gentamicin dose response 0, 0.1, 0.5, 1, 10 μg/mL, an order of magnitude below the MIC) | time after initial exposure at which discernable clustering appears in VAE space (E. coli lysate; 10 μg/mL gentamicin) | antibiotic concentration at which lysate data are differentiated from control treatment in VAE space (E. coli lysate; gentamicin dose response 0, 0.1, 0.5, 1, 10 μg/mL) [µg/mL]
CC1(C)S[C@@H]2[C@H](NC(=O)C(C(=O)O)c3ccccc3)C(=O)N2[C@H]1C(=O)O (stereo partly drawn) [carbenicillin, Carbenicillin disodium salt] | > 50 | does not exhibit any significant growth inhibition | – | – | – | – | – | –
gentamicin sulfate | – | – | 10 | evident resistance | about 20 minute | about 0.1 μg/mL | about 10 minute | ≤ 0.1
CO[C@H]1/C=C/O[C@@]2(C)Oc3c(C)c(O)c4c(O)c(c(/C=N/N5CCN(C)CC5)c(O)c4c3C2=O)NC(=O)/C(C)=C\C=C\[C@H](C)[C@H](O)[C@@H](C)[C@@H](O)[C@@H](C)[C@H](OC(C)=O)[C@@H]1C [rifampicin] | > 400 | – | – | – | – | – | – | –
